Test results from patent publication US20180346446A1, “IRE1 SMALL MOLECULE INHIBITORS” (QUENTIS THERAPEUTICS, INC., priority 2017, published 2018).

What was measured:
[1] = molecular target: T1, IRE1a (Homo sapiens, UniProt O75460); assay: In vitro FRET assay (XBP1 RNA probe cleavage by IRE1a); type: biochemical; parameters: purchased SignalChem; conditions: 2 nM IRE1a protein
Method: In vitro FRET assay was performed to evaluate the ability of select compounds to inhibit IRE1, the results of which are summarized in Table 3. To perform the in vitro FRET assay, 1× complete assay buffer (CAB; […], 50 mM sodium citrate pH 7.15, ImM magnesium acetate, 0.02% tween 20) was used to dilute SignalChem IRE1a protein to a final concentration of 2 nM. Selected compounds were serially diluted with DMSO in a non-binding black 384-well plate for a total of 15 ul in each well. 2 ul of the serially diluted compound or DMSO control were then added to new wells containing 98 ul of 1×CAB, for a total volume of 100 ul, 10 ul of which were then transferred to wells of a new plate. 5 ul of the diluted IRE1a was then added to each well. 5 ul of a […] XBP1 RNA probe was then added to each well. Fluorescence was then read over 30 minutes in kinetic mode (485/515 nm).
Two RNA probes were used, XBP1 wildtype (SEQ ID NO: 2) which is able to be spliced by active IRE1a or XBP1 mutant (SEQ ID NO: 3) which is unable to be spliced. Each probe contained a 5′ 6-FAM modification and a 3′ IOWA Black FQ modification. […]

[2] = molecular target: T1, IRE1a; assay: IRE1a Endoribonuclease Nanoluciferase Assay (XBP1 luciferase reporter in 293T cells); type: cell-based; conditions: 293T cells transfected with XBP1 luciferase reporter, ER stressors +/- inhibitors
Method: Compounds disclosed herein were assessed for disruption of IRE1 signaling using a IRE1a Endoribonuclease Nanoluciferase Assay. Briefly, 2.5×10^6 293T cells were seeded in a 10 cm^2 tissue culture plate. About 24 hours later, the cells were transfected with Effectene. In a 15 mL Tube, the following was added: 2 ug XBP1 luciferase reporter plasmid (PGK-Luc2-P2A-XBP1u-Nanoluciferase-PEST); 300 ul EC buffer; and 16 ul Enhancer, followed by incubation at room temp for 5 minutes. Next, 60 ul Effectene (Qiagen 301427) was added, followed by incubation at room temperature for 10 minutes. 2.6 mL cDMEM media was added. Old media was aspirated from the cells, followed by addition of 7 mL fresh media. Full transfection mixture was added dropwise to cells. Cells were incubated for 6 hours, followed by trypsinization, centrifugation and resuspension in 11 mL media. 100 uL of cells were plated per a well in a 96 well plate. A day later, ER stressors of choice +/− inhibitors were added. To harvest, media was aspirated from cells completely, then 50 uL 1× passive lysis buffer (Promega: E1941) was added per well and put on shaker (300 rpm) for 30 minutes at room temperature. Cells were centrifuged, and 15 uL sample per well was added to a new, opaque white 384 well plate (Corning 3570). 15 uL OneGlo (nanoluciferase kit, Promega N1630) was added. Plates were spun down, placed on shaker (300 rpm) for 10 minutes. Plates were read on luminometer, 1000 ms integration time per well. 15 uL Stop and Glo (nanoluciferase kit) was added. Plates were spun down, placed on shaker (300 rpm) for 10 minutes. Plates were read on luminometer, 1000 ms second integration time per well. Recordings are provided below in Table 4.

[3] = system: 293T cells; assay: Growth assay (cytotoxicity); type: cell-based; conditions: 2 day incubation
Method: A growth assay was performed to evaluate the compounds disclosed herein for cytotoxicity. Briefly, 5,000,000 293T cells were resuspended in 18 mL of cDMEM for a final concentration of 277,777 cells/mL. […] In a separate 96 well dilution plate, 199 uL cDMEM and 1 uL of DMSO or any one of the compounds disclosed herein (shown as Test Compound 1, 2, 3, 4, 5, or 6 below) were added to wells A4, A8, C4, C8, E4, E8, G4, and G8. 133.3 uL cDMEM was added to wells 1, 2, 3, 5, 6, and 7 in rows A, C, E and G of the dilution plate. Compounds were serially diluted leftwards in threefold dilutions (66.7 uL into 133.3 uL cDMEM). 20 uL of each dilution was transferred in duplicate (duplicates in vertical paired wells) to the cells plated in the 96-well plate shown in Table 5, to the total concentrations shown below. 200 uL cDMEM was added to media wells (wells G5-H8). The plate was then placed in a humidified chamber for a 2 day incubation, and then photographed (media was more yellow in wells with potent cell growth). Absorbance was then measured at about […] (lower for more acidic media) and about […] (higher for more acidic media).

T1 sequence (O75460 19-977): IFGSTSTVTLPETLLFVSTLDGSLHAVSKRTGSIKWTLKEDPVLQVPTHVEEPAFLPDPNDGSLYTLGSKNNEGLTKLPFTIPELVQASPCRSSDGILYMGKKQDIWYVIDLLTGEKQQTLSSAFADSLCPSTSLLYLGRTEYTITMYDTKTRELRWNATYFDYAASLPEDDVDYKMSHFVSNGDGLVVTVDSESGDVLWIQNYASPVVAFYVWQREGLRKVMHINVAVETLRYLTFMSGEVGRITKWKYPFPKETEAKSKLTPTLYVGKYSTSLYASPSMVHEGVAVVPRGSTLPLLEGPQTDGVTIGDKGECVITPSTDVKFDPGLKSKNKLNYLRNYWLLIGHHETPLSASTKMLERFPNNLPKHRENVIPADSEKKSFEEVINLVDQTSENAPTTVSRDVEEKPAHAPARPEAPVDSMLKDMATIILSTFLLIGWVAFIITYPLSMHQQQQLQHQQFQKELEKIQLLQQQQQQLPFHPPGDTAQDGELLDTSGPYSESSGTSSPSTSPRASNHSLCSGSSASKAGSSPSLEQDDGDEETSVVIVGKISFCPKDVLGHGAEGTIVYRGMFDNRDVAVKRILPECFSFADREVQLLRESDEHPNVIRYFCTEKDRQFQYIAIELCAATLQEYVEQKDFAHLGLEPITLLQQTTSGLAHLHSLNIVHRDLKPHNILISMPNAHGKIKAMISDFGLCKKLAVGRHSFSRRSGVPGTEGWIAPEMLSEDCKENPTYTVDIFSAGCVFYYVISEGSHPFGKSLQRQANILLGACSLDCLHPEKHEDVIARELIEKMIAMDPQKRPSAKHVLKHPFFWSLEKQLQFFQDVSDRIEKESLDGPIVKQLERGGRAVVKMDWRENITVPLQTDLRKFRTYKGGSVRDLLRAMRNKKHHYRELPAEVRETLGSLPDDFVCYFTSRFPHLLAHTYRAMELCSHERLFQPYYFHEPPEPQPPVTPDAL

Row | Compound | IC50 [1] | EC50 [2] | % Growth at 0.185 uM [3] | % Growth at 0.5556 uM [3] | % Growth at 1.667 uM [3] | % Growth at 5 uM [3]
1 | CCc1cc(-c2cnc(NS(=O)(=O)c3ccccc3Cl)c(F)c2)cc2cnc(N[C@H]3CC[C@H](N)CC3)nc12.O=CO [55; Formic Acid] | ≤ 5 nM | ≤ 5 nM | D (D: >75% to ≤100%) | D (D: >75% to ≤100%) | D (D: >75% to ≤100%) | D (D: >75% to ≤100%)
2 | CCc1cc(-c2cnc(NS(=O)(=O)c3ccccc3Cl)nc2C)cc2cnc(N[C@H]3CC[C@H](N)CC3)nc12.O=CO [23; Formic Acid] | ≤ 5 nM | ≤ 5 nM | D (D: >75% to ≤100%) | C (C: >50% to ≤75%) | C (C: >50% to ≤75%) | D (D: >75% to ≤100%)
3 | CCc1cc(-c2ccc(NS(=O)(=O)c3ccccc3Cl)nc2)cc2cnc(N[C@H]3CC[C@H](N)CC3)nc12.O=CO [27; Formic Acid] | ≤ 5 nM | ≤ 5 nM | D (D: >75% to ≤100%) | D (D: >75% to ≤100%) | C (C: >50% to ≤75%) | B (B: >25% to ≤50%)
4 | CCc1cc(-c2cnc(NS(=O)(=O)c3ccccc3Cl)cn2)cc2cnc(N[C@H]3CC[C@H](N)CC3)nc12.O=CO [25; Formic Acid] | ≤ 5 nM | ≤ 5 nM | D (D: >75% to ≤100%) | D (D: >75% to ≤100%) | D (D: >75% to ≤100%) | D (D: >75% to ≤100%)
5 | CCc1cc(-c2ccc(NS(=O)(=O)c3ccccc3Cl)cc2F)cc2cnc(N[C@H]3CC[C@H](N)CC3)nc12.O=CO [35; Formic Acid] | ≤ 5 nM | ≤ 5 nM | D (D: >75% to ≤100%) | D (D: >75% to ≤100%) | C (C: >50% to ≤75%) | B (B: >25% to ≤50%)
6 | CCc1cc(NS(=O)(=O)c2ccccc2Cl)ccc1-c1cc(CC)c2nc(N[C@H]3CC[C@H](N)CC3)ncc2c1.O=CO [34; Formic Acid] | ≤ 5 nM | 5 to 50 nM | D (D: >75% to ≤100%) | D (D: >75% to ≤100%) | D (D: >75% to ≤100%) | A (A: ≤25%)
7 | CCc1cc(-c2ccc(NS(=O)(=O)c3ccccc3Cl)c(F)c2C)cc2cnc(N[C@H]3CC[C@H](N)CC3)nc12.O=CO [71; Formic Acid] | ≤ 5 nM | ≤ 5 nM | D (D: >75% to ≤100%) | D (D: >75% to ≤100%) | C (C: >50% to ≤75%) | B (B: >25% to ≤50%)
8 | CCc1cc(-c2nnc(NS(=O)(=O)c3ccccc3Cl)cc2C)cc2cnc(N[C@H]3CC[C@H](N)CC3)nc12.O=CO [67; Formic Acid] | ≤ 5 nM | 5 to 50 nM | D (D: >75% to ≤100%) | D (D: >75% to ≤100%) | C (C: >50% to ≤75%) | C (C: >50% to ≤75%)
9 | CCc1cc(-c2cnc(NS(=O)(=O)c3ccccc3Cl)nc2OC)cc2cnc(N[C@H]3CC[C@H](N)CC3)nc12.O=CO [46; Formic Acid] | ≤ 5 nM | ≤ 5 nM | D (D: >75% to ≤100%) | D (D: >75% to ≤100%) | D (D: >75% to ≤100%) | D (D: >75% to ≤100%)
10 | CCc1cc(-c2ccc(NS(=O)(=O)c3ccccc3Cl)c(C)c2C)cc2cnc(N[C@H]3CC[C@H](N)CC3)nc12.O=CO [22; Formic Acid] | 5 to 50 nM | > 100 nM | D (D: >75% to ≤100%) | D (D: >75% to ≤100%) | D (D: >75% to ≤100%) | A (A: ≤25%)
11 | CCc1cc(-c2ccc(NS(=O)(=O)c3ccccc3Cl)cc2)cc2cnc(N[C@H]3CC[C@H](N)CC3)nc12.O=CO [18; Formic Acid] | ≤ 5 nM | ≤ 5 nM | D (D: >75% to ≤100%) | D (D: >75% to ≤100%) | C (C: >50% to ≤75%) | A (A: ≤25%)
12 | N[C@H]1CC[C@H](Nc2cc3ccc(-c4ccc(NS(=O)(=O)c5ccccc5Cl)c(F)c4)cc3cn2)CC1 [57; Formic Acid] | ≤ 5 nM | ≤ 5 nM | – | – | – | –
13 | CCc1cc(-c2ncc(NS(=O)(=O)c3ccccc3Cl)cc2OC)cc2cnc(N[C@H]3CC[C@H](N)CC3)nc12 [93; Formic Acid] | ≤ 5 nM | ≤ 5 nM | – | – | – | –
14 | CCc1cc(-c2ccc(NS(=O)(=O)c3ccccc3Cl)nc2OC(F)(F)F)cc2cnc(N[C@H]3CC[C@H](N)CC3)nc12 [107; Formic Acid] | ≤ 5 nM | ≤ 5 nM | – | – | – | –
15 | CCc1cc(-c2ccc(NS(=O)(=O)c3ccccc3Cl)c(F)c2)cc2cnc(N[C@@H]3CC[C@H](N)C3)nc12 [79; Formic Acid] | ≤ 5 nM | 5 to 50 nM | – | – | – | –
16 | N[C@@H]1CC[C@@H](Nc2ncc3cc(-c4ccc(NS(=O)(=O)c5ccccc5Cl)c(F)c4)ccc3n2)C1 [77; Formic Acid] | ≤ 5 nM | 5 to 50 nM | – | – | – | –
17 | COc1nc(NS(=O)(=O)c2ccccc2Cl)ccc1-c1cc(C)c2nc(N[C@H]3CC[C@@H](N)CC3)ncc2c1 [138; Formic Acid] | ≤ 5 nM | 50 to 100 nM | – | – | – | –
18 | CCc1cc(-c2cc(F)c(NS(=O)(=O)c3ccccc3Cl)cc2OC)cc2cnc(N[C@H]3CC[C@H](NC)CC3)nc12 [121; Formic Acid] | ≤ 5 nM | ≤ 5 nM | – | – | – | –
19 | CCc1cc(-c2cc(F)c(NS(=O)(=O)c3ccccc3Cl)cc2OC)cc2cnc(N[C@H]3CC[C@H](N(C)C)CC3)nc12 [120; Formic Acid] | ≤ 5 nM | ≤ 5 nM | – | – | – | –
20 | CCc1cc(-c2ccc(NS(=O)(=O)c3ccccc3Cl)c(F)c2)cc2cnc(N[C@H]3CC[C@H](NC)CC3)nc12 [60; Formic Acid] | ≤ 5 nM | ≤ 5 nM | – | – | – | –
21 | CCc1cc(-c2cc(NS(=O)(=O)c3ccccc3Cl)nn2C)cc2cnc(N[C@H]3CC[C@H](N)CC3)nc12 [Compound 6, N-(5-(2-(((1r,4r)-4-aminocyclohexyl)amino)-8-ethylquinazolin-6-yl)-1-methyl-1H-pyrazol-3-yl)-2-chlorobenzenesulfonamide] | ≤ 5 nM | 50 to 100 nM | – | – | – | –
22 | N[C@H]1CC2C[C@@H](Nc3ncc4cc(-c5ccc(NS(=O)(=O)c6ccccc6Cl)c(F)c5)ccc4n3)CC2C1 (some centres unmarked) [85; Formic Acid] | ≤ 5 nM | > 100 nM | – | – | – | –
23 | CCc1cc(-c2ccc(NS(=O)(=O)c3ccccc3Cl)c(F)c2)cc2cnc(N[C@H]3CC[C@H](NC(C)=O)CC3)nc12 [59; Formic Acid] | 5 to 50 nM | 50 to 100 nM | – | – | – | –
24 | COc1nc(NS(=O)(=O)c2ccccc2Cl)ccc1-c1cc(C(C)(F)F)c2nc(N[C@H]3CC[C@H](N)CC3)ncc2c1 [123; Formic Acid] | ≤ 5 nM | ≤ 5 nM | – | – | – | –
